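Grown in 96-well plates, cells were treated for 48 hours with each compound at five concentrations. Insufficient inhibition: endpoint recorded as highest concentration tested. GI50 is the concentration that inhibits growth by half. TGI: total growth inhibition.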

Here are results for 14 compounds from PubChem BioAssay (NCI).

Holding throughout (test): NCI tumour cell line growth inhibition, 48 h
Assay [1] relates to SW-620 colon.
The subject of assay [2] is OVCAR-5 ovarian.
For assay [3], the system named is M14 melanoma.
Assay [4] relates to A549 NSCLC.
The test system of assay [5] is HT29 colon.
The subject of assay [6] is RPMI-8226 leukemia.
Assay [7] concerns ACHN renal.
Assay [8] concerns HL-60(TB) leukemia.
For assay [9], the system named is SF-268 CNS.

Consider `O=C1C(=C([O-])c2ccccc2)C(=O)c2ccccc21.O=C1C(=C([O-])c2ccccc2)C(=O)c2ccccc21.[Mn+2]`, for which the GI50 in assay [1] was over 100 µM; in [2], over 100 µM; in assay [3] it was 70.4 µM; in assay [4], over 100 µM; in assay [5] it was 43.2 µM; in [6] it was over 100 µM. In addition, the TGI in [1], in [2], in [3], in [4], in assay [5] and in assay [6] was over 100 µM in each case.
For `O=C(/C=C/c1ccccc1O)c1ccc([N+](=O)[O-])cc1`, the TGI in [7] was 26.4 µM; in [1] it was 31.3 µM; in assay [8], 56.9 µM; in assay [2] it was 41.1 µM; in assay [3], 52.2 µM; in assay [4], 48.9 µM. The TGI came out at 66.9 µM in assay [9] and 36.7 µM in [5].
Regarding `NS(=O)(=O)c1ccc(NC(=O)Cc2nc3ccccc3s2)cc1`, the TGI in assay [7] is 29.3 µM; in assay [1], 31.7 µM; in [8] it was 45.7 µM; in [2], 35.2 µM; in assay [3], 29.4 µM; in assay [4], 37.9 µM. Moreover, the TGI turned out to be 30.7 µM in assay [9], 35.4 µM in assay [5] and 74.1 µM in assay [6].
As to `Cc1ccc(/C=C(\NC(=O)c2ccccc2)c2nc3ccccc3[nH]2)cc1`, the TGI was over 100 µM in [7]; over 100 µM in assay [1]; 56.8 µM in [8]; over 100 µM in assay [2]; over 100 µM in assay [3]; over 100 µM in assay [4]. The TGI in assay [9] and in assay [5] was over 100 µM throughout.
With `CCOc1ccc(/C=C/c2cc(OC)c(OC)c(OC)c2)cc1`, the TGI in [7] was over 64.8 µM; in [1], over 100 µM; in [8], 1.46 µM; in assay [2], over 100 µM; in assay [3], 5.29 µM; in [4], over 100 µM. Moreover, the TGI in [9] was over 25.8 µM; in assay [5], over 100 µM; in assay [6] it was over 100 µM.
For the compound `CC(=O)OCCOCNC(=S)N/N=C/c1cc([N+](=O)[O-])ccc1O`, the TGI in assay [7], in assay [1], in [8], in assay [2], in assay [3] and in assay [4] was over 100 µM each time. The TGI in assay [9] and in [5] was over 100 µM in each case.
Turning to `O=C(Cc1nc2ccccc2o1)C(=O)Nc1cccc(Cl)c1`, the TGI in assay [7], in [1], in assay [8], in [3], in assay [4] and in assay [9] was over 100 µM in each case. The compound further had a TGI in [5] of over 100 µM.
As to `Cc1[nH]c2ccccc2c1CC/C(=N\Nc1ccccc1)c1ccccc1`, the TGI in assay [7], in assay [1], in assay [8], in assay [2], in assay [3] and in assay [4] was over 100 µM in each case. For the same compound, the TGI in assay [5] and in [6] was over 100 µM each time.
With `c1ccncc1`, the TGI in assay [7], in assay [1], in assay [8], in assay [2], in assay [3] and in assay [4] was over 100 µM in each case. Further, the TGI in assay [9], in assay [5] and in assay [6] was over 100 µM in each case.
Turning to `CCOC(=O)C(CCC(N)=O)(CCC(=O)OC)C(=O)OCC`, the TGI in assay [7], in assay [1], in assay [8], in assay [2], in assay [3] and in assay [4] was over 100 µM in each case. Also, the TGI in [9], in assay [5] and in [6] was over 100 µM in each case.
As for `NC1CCCCC1N.O=C1C=C/C(=C(/c2ccc(O)c(Br)c2)c2ccccc2S(=O)(=O)[O-])C=C1Br.O=C1C=C/C(=C(/c2ccc(O)c(Br)c2)c2ccccc2S(=O)(=O)[O-])C=C1Br.[Pt+4]`, the GI50 is 1.42 µM in assay [7]; 0.578 µM in assay [1]; 1.43 µM in assay [8]; 2 µM in assay [2]; 7.77 µM in [3]; 2.42 µM in assay [4]. The results for the GI50 in [9], in assay [5] and in assay [6] were 0.885 µM, 1.67 µM and 6.29 µM, respectively. In addition, the TGI was over 100 µM in assay [7]; 52.2 µM in assay [1]; over 100 µM in assay [8]; 87.7 µM in assay [2]; over 100 µM in [3]; over 100 µM in assay [4]. Moreover, the TGI in assay [9], in [5] and in [6] was over 100 µM throughout.
In the case of `COC(=O)c1ncc2c(=O)[nH]c3ccccc3c2c1C(=O)OC`, the TGI in assay [7], in assay [1], in assay [8], in [2], in [3] and in assay [4] was over 100 µM each time. Besides, the TGI in assay [9], in assay [5] and in assay [6] was over 100 µM in each case.
Regarding `CC(C)(C)C(=O)Nc1cccc2oc(-c3ccccc3)cc12`, the TGI in [7], in assay [1], in [8], in assay [3], in assay [4] and in assay [5] was over 100 µM throughout. In assay [6], this compound yielded a TGI of over 100 µM.
As for `COc1cc(CC2c3cc(OC)c(OC)cc3CCN2C)ccc1O` (centres undefined), the TGI in [7], in [1], in assay [2], in assay [3], in assay [4] and in [9] was over 100 µM throughout. The TGI in assay [5] and in assay [6] was over 100 µM throughout.
